Earlier results as cited in US20140080846A1, “Method of treating orphan respiratry diseases using doxofylline” (priority 2012, published 2014).

What was measured:
[1] = for subjects dropped out of the study due to side effects: large randomized clinical study, 12 week testing period, asthma patients
[2] = intravenous, CF patients

Cn1c(=O)c2c(ncn2CC2OCCO2)n(C)c1=O [doxofylline, 7-(1,3-dioxolan-2-ylmethyl)-1,3-dimethylpurine-2,6-dione]
efficacy in treating chronic asthma ([1]; compared to theophylline): as effective as theophylline
subjects dropped out of the study due to side effects [1]: 11%

Cn1c(=O)c2[nH]cnc2n(C)c1=O [theophylline]
subjects dropped out of the study due to side effects [1]: 31%
effect on Forced Expiratory Volume at 1 second (FEV1) and Forced Expiratory Flow at 0.75 seconds (FEF 0.75) [2]: positive results
patients treated in an emergency setting for overdose who die: Ten
